From US9427426B2 (priority 2008, dated 2016)

Experiments:
[1] = tested on: rat; settings: cited from earlier work
[2] = tested on: rats intoxicated with lead (lead acetate); assay: Example 5: erdosteine prophylaxis per os plus i.v. treatment in lead intoxication; format: in vivo, rats Wistar; set-up: RBC / ALT / Hct / MCH / Hb / WBC / Urea / Uric acid / AST: unit not given here
Description: The experiment has been structured for subjects that at a certain moment might be at higher risk to be intoxicated, for professional or other reasons. After intoxication the animals have been treated i.v.
Experiment has been carried out in parallel with example 3. Whatever not specified is identical with example 3.
Lot 14 One lot of 30 rats Wistar (15 males and 15 females) have been introduced in the experiment.
At day −2, day −1 and day 0 the animals have been administered 300 mg/kg erdosteine per os. At day 0, four hours after administration of erdosteine, the animals have been intoxicated with lead as described in example 3. After lead intoxications animals have been treated with erdosteine 350 mg/kg with the same protocol as described in example 3. […] Results have been compared with lot 2 since the experiments were carried out in parallel and results can be compared.

[3] = water (NAC: at 20° C.); cited from earlier work
[4] = tested on: rats; assay: Example 2: erdosteine toxicity i.v. (lot 11); format: in vivo, Wistar rats; settings: erdosteine 3500 mg/kg i.v. slowly; 10 animals, not metal intoxicated
Excerpt: (§1) These lots have been evaluated only for mortality.

[5] = Example 2: erdosteine toxicity i.v. (lot 11); format: in vivo, Wistar rats; settings: both sexes, Wistar, in vivo, iv, 3500 mg/kg; rat, i.v.; read-out: LD50 of i.v. form of erdosteine
Excerpt: as §1

[6] = tested on: rats; assay: Example 3: evaluation of erdosteine formulation toxicity i.v. (lots 10-13); format: in vivo, Wistar rats; settings: 10 animals
Description: Have been introduced 4 lot of 10 animals (5 males and 5 females) as follows: • Lot 10—intoxicated with 3500 mg/kg erdosteine i.v., 4.37 g erdosteine+1.48 g sodium hydrogen carbonate dissolved in 25 ml, administrated 2 ml/100 g of animal weight • Lot 11—intoxicated with 4000 mg/kg erdosteine i.v. as in lot 10, administrated 2.28 ml/100 g of animal weight • Lot 12—intoxicated with 4500 mg/kg erdosteine i.v. 4.5 g dissolved in 20 ml, administrated 2 ml/100 g of animal weight. Dissolution volume was choose in order to keep a similar injection volume. • Lot 13—intoxicated with 5500 mg/kg erdosteine i.v. as in lot 12, administrated 2.44 ml/100 g of animal weight Statistical Analysis
It has been evaluated toxicity of formula 350 mg erdosteine+118 mg sodium hydrogen carbonate (formula that has shown the best stability data).

[7] = lot 14: erdosteine 300 mg/kg per os at day -2, -1, 0, then lead acetate 4665 mg/kg per os and erdosteine 350 mg/kg i.v. once a day for 7 days, 30 rats
[8] = lot 14 survivors day 7, prophylaxis per os + Pb intoxication + erdosteine 350 mg/kg i.v.
[9] = lot 14 day 0 before intoxication, after erdosteine 300 mg/kg per os at day -2, -1, 0
[10] = 3500 mg/kg erdosteine i.v. (lot 10)
[11] = 4000 mg/kg erdosteine i.v. (lot 11)
[12] = 4500 mg/kg erdosteine i.v. (lot 12), solution not perfectly clear
[13] = 5500 mg/kg erdosteine i.v. (lot 13), solution not perfectly clear

SMILES: O=C(O)CSCC(=O)NC1CCSC1=O (stereo not drawn) [erdosteine, Erdosteine]
- LD50 per os ([1]; per os, rat where given): 8750 mg/kg
- LD50 i.v. ([1]; rat, i.v.): > 3500 mg/kg
- Mortality % [2, 7]: 20%
- Total mortality [2, 7]: 6/30 ^2
- ALT [2, 8]: 165.4^1,2
- AST [2, 8]: 48.9^1,2
- Hb [2, 8]: 17.12
- Hct [2, 8]: 43.81
- MCH [2, 8]: 23.12
- PLT [2, 8]: 605
- RBC [2, 8]: 7.446
- Urea [2, 8]: 62.2^1,2
- Uric acid [2, 8]: 2.71
- WBC [2, 8]: 6.98
- ALT [2, 9]: 166.2
- AST [2, 9]: 36.2
- Hb [2, 9]: 19.96
- Hct [2, 9]: 47.45
- MCH [2, 9]: 25.12
- PLT [2, 9]: 793
- RBC [2, 9]: 7.93
- Urea [2, 9]: 54.86
- Uric acid [2, 9]: 1.95
- WBC [2, 9]: 4.90
- solubility in water, in words [3]: moderately soluble
- Mortalitaty total [4]: 1/10
- Mortality in percent [4]: 10%
- LD50 [5]: > 3500 mg/kg
- Mortality % [6, 10]: 10%
- Total mortality [6, 10]: 1/10
- Mortality % [6, 11]: 40%
- Total mortality [6, 11]: 4/10
- Mortality % [6, 12]: 70%
- Total mortality [6, 12]: 7/10
- Mortality % [6, 13]: 100%
- Total mortality [6, 13]: 10/10
